Several values for one entry are separate records, joined by “and”; a condition that tells them apart may be missing. Equal values may be shown once. Read-outs that look alike come from different tables or passages of the source.
What was measured:
inflammation = details: cited from earlier work
[1] = tested on: cutaneous flush induced by nicotinic acid; details: 975 mg total: 650 mg at 1 hr and 325 mg at 0.5 hr prior to nicotinic acid; cited from earlier work
[2] = tested on: prostaglandin synthetase (cyclooxygenase); details: Flower, Pharmacol. Rev. 26:33 (1974); cited from earlier work
[3] = tested on: PGD-M, the major urinary metabolite of PGD2; experiment: Urinary excretion of PGD-M after nicotinic acid (Example 1, FIGS. 1, 2); format: in vivo, human
Experimental: (§1) Two weeks later, the same subjects were administered 40 of mg aspirin for each of four days. […] Urinary excretion of PGD-M was much lower (FIG. 2), confirming the suppressive activity of aspirin on PGD2 release. Release of PGF2 after aspirin pretreatment (40 mg) was approximately 10% of baseline (FIG. 3).

[4] = tested on: flushing induced by niacin; experiment: Niacin flushing after sustained release aspirin pretreatment (Example 7); format: in vivo, human
[5] = tested on: flushing induced by nicotinic acid; experiment: Rating of flushing by subject (Example 8); format: in vivo, human; details: number of subjects; n = 14; p < 0.05 (Wilcoxon)
Experimental: (§2) Fourteen healthy male subjects completed the study. After randomization, subjects were given a placebo or 81 mg of aspirin bid for three days. The study was double-blind.
(§3) Room temperature and humidity were constant during the trial.
(§4) Flushing was measured in three ways: (1) quantitatively using laser Doppler, (2) subjectively via questionnaire, and (3) by measuring a biochemical marker of flushing, a stable metabolite of prostaglandin D2. Complete pharmacokinetic parameters in timed blood samples after oral administration were also measured in plasma and urine. Flushing, as measured by continuous and simultaneous recording of cutaneous blood flow on each side of the neck using laser Doppler techniques (Moor Instruments), provides an arbitrary representation of cutaneous blood flow defined as FLUX. Flux is expressed in arbitrary units (AU) from baseline (FLUXpeak-FLUXbaseline; see FIG. 11B). Duration of flush is the time in minutes from the beginning to the end of Flux shift in the DRTSOFT plot.

[6] = tested on: flushing induced by nicotinic acid; experiment: Cutaneous blood flow (FLUX) by laser Doppler, flushing severity and duration (Example 8); format: in vivo, human; details: mean ± S.D., n = 14
Experimental: as §2, §3, §4

[7] = tested on: flushing induced by nicotinic acid; experiment: Niacin flushing after bid aspirin pretreatment (Example 2); format: in vivo, human
Experimental: Three subjects were administered 40 mg of aspirin twice daily (i.e., bid) in the morning and evening for three days.

[8] = tested on: nicotinic acid-induced flush; details: pretreatment at 4.5 and 0.5 hr; indomethacin 25 or 50 mg/kg; aspirin 50, 100, or 200 mg/kg; cited from earlier work
[9] = tested on: niacin-induced cutaneous reactions; details: cited from earlier work
[10] = tested on: flushing induced by nicotinic acid; format: in vivo, human
Experimental: Two weeks later, the same subjects were administered 40 of mg aspirin for each of four days.

platelet aggregation = details: cited from earlier work
[11] = tested on: human macrophage cell line THP-1; experiment: PG release from THP-1 cells in vitro (Examples 3 and 6); format: cell-based; details: for IC50: Homo sapiens
Text: Indomethacin was used in place of aspirin to inhibit PG production in THP-1 cells in vitro as in Example 3.

PGF2 release = experiment: PG release following topical nicotinic acid with or without aspirin pretreatment (FIG. 3); format: in vivo, human; details: aspirin pretreatment (40 mg) (FIG. 3)
Experimental: as §1

[12] = tested on: flushing induced by nicotinic acid; experiment: Rating of flushing by investigator (Example 8); format: in vivo, human; details: number of subjects; n = 14; p < 0.05 (Wilcoxon)
Experimental: as §2, §3, §4

[13] = tested on: flushing induced by nicotinic acid; experiment: Local skin temperature change (Example 8); format: in vivo, human; details: mean ± S.D.; n = 14; p = 0.016 (paired t test)
Experimental: as §2, §3

[14] = tested on: PG production in other cell types; details: cited from earlier work
[15] = tested on: prostaglandin F2, a metabolite of D; details: cited from earlier work
[16] = tested on: human circulating monocytes; details: FIG. 4
[17] = within days after initiating therapy; cited from earlier work
[18] = tested on: release of eicosanoids from skin; details: topical niacin (FIG. 7)
Text: (§5) Langerhans cells, the macrophages of skin, may differ from other macrophages in releasing lesser amounts of eicosanoids other than PGD2.

[19] = tested on: eicosanoid metabolites in urine; details: oral administration (FIG. 8)
Text: as §5

[20] = Physician's Desk Reference, 51st ed.
[21] = 325 mg aspirin 30 minutes prior to niacin
[22] = initial testing, out of 306 patients, over 33 months

## O=C(O)Cc1ccccc1Nc1c(Cl)cccc1Cl [Diclofenac]
inflammation; Goodman and Gilman, 9th ed.
  Minimum Anti-inflammatory Dosage: 100 mg

## CCc1cccc2c3c([nH]c12)C(CC)(CC(=O)O)OCC3 (stereo not shown) [Etodolac]
inflammation; Goodman and Gilman, 9th ed.
  Minimum Anti-inflammatory Dosage: 200 mg

## CC(C(=O)O)c1cccc(Oc2ccccc2)c1 (stereo not shown) [Fenoprofen]
inflammation; Goodman and Gilman, 9th ed.
  Minimum Anti-inflammatory Dosage: 300 mg

## CC(C(=O)O)c1ccc(-c2ccccc2)c(F)c1 (stereo not shown) [Flurbiprofen]
inflammation; Goodman and Gilman, 9th ed.
  Minimum Anti-inflammatory Dosage: 50 mg

## CC(C(=O)O)c1cccc(C(=O)c2ccccc2)c1 (stereo not shown) [Ketoprofen]
inflammation; Goodman and Gilman, 9th ed.
  Minimum Anti-inflammatory Dosage: 150 mg

## O=C(c1ccccc1)c1ccc2n1CCC2C(=O)O (stereo not shown) [Ketorolac]
inflammation; Goodman and Gilman, 9th ed.
  Minimum Anti-inflammatory Dosage: 5 mg

## COc1ccc2cc(CCC(C)=O)ccc2c1 [Nabumetone]
inflammation; [20]
  Minimum Anti-inflammatory Dosage: 500 mg

## O=C(O)CCc1nc(-c2ccccc2)c(-c2ccccc2)o1 [Oxaprozin]
inflammation; Goodman and Gilman, 9th ed.
  Minimum Anti-inflammatory Dosage: 600 mg

## CN1C(C(=O)Nc2ccccn2)=C(O)c2ccccc2S1(=O)=O [Piroxicam]
inflammation; [20]
  Minimum Anti-inflammatory Dosage: 10 mg

## CC1=C(CC(=O)O)c2cc(F)ccc2/C1=C\c1ccc([S+](C)[O-])cc1 (stereo not shown) [Sulindac]
inflammation; Goodman and Gilman, 9th ed.
  Minimum Anti-inflammatory Dosage: 150 mg

## Cc1ccc(C(=O)c2ccc(CC(=O)O)n2C)cc1 [Tolmetin]
inflammation; [20]
  Minimum Anti-inflammatory Dosage: 400 mg

## CC(=O)Oc1ccccc1C(=O)O [aspirin]
[1]
  reduction of cutaneous flush: significantly reduce cutaneous flush
[2]
  inhibition of synthesis of PGs such as E2 and F2, concentrations: high micromolar
[3]; 40 mg aspirin each of four days, 500 mg nicotinic acid on fourth day (FIG. 2)
  urinary excretion of PGD-M after multi-day aspirin: much lower
[4]; 325 mg aspirin 1/2 hour before 500 mg immediate release niacin, third subject
  flushing, aspirin 1/2 hour before niacin, third subject: severe flushing
[4]; 325 mg aspirin 1/2 hour before 500 mg immediate release niacin, two subjects
  flushing, aspirin 1/2 hour before niacin: flushing, though slightly diminished
[4]; 325 mg aspirin 1/2 hour before niacin, compared with SR aspirin for 6 hours, three subjects
  side effects from niacin versus sustained release aspirin predosing: significantly greater side effects
[5]
  Rating of Flushing by Subject: Mild: 4
  Rating of Flushing by Subject: Moderate: 1
  Rating of Flushing by Subject: None: 6
  Rating of Flushing by Subject: Severe: 3
  Rating of Flushing by Subject: Very severe: 0
[6]; aspirin 81 mg bid three days then 500 mg nicotinic acid + 81 mg aspirin vs placebo then niacin, p = 0.0001 (paired t test)
  AUCflux: 3022.5 + 2772
[6]; p = 0.002 (paired t test)
  Flushing duration: 15.8 ± 16 min
[7]; 40 mg aspirin bid three days, fourth day 500 mg immediate release nicotinic acid with 40 mg aspirin, three subjects
  flushing, bid aspirin pretreatment: None of the subjects experienced any appreciable flushing
[8]
  inhibition of nicotinic acid-induced flush (increase in ear temperature): inhibited
[9]; 80 mg aspirin 30 minutes prior to niacin, compared to placebo
  niacin-associated flushing, warmth, itching and tingling, 80 mg aspirin: even more aggravated flushing, warmth, itching and tingling
[9]; [21]
  niacin-associated warmth, flushing, itching and tingling, 325 mg aspirin: decrease the warmth and flushing associated with niacin, but not the itching and tingling
  patients with flushing and warmth: at least 72 % of the patients
[10]; 40 mg aspirin 1 hour prior to 500 mg immediate release nicotinic acid, all three subjects
  subjective sensation: subjective sensation of cutaneous warmth
[10]; 40 mg aspirin 1 hour prior to single 500 mg immediate release nicotinic acid, all three subjects
  flushing: severe flushing
[10]; 40 mg aspirin each of four days, 500 mg nicotinic acid on fourth day 1 hour after aspirin, two of three subjects
  flushing after multi-day aspirin pretreatment: virtually no flushing
[10]; 40 mg aspirin each of four days, 500 mg nicotinic acid on fourth day, third subject
  flushing after multi-day aspirin pretreatment, third subject: some flushing, but less than that encountered previously
inflammation; [20]
  Minimum Anti-inflammatory Dosage: 325 mg
Platelet aggregation; [22]
  patients with complete inhibition of platelet aggregation: 288 patients
  patients with partial inhibition of platelet aggregation: 78 patients
Platelet aggregation; of 52 patients, dosage escalation or fluctuation of response
  patients with initial partial inhibition achieving complete inhibition: 35
Platelet aggregation; of the 35
  patients reverted to partial inhibition on further testing: 8
Platelet aggregation; repeat testing, without change in aspirin dosage
  patients converted from complete to partial inhibition: about 33%
[11]; THP-1, read-out: IC50, inhibition of niacin-stimulated release of PG from THP-1 cells
  IC50: ~380 nM and ~0.07 µg/mL
PGF2 release
  release of PGF2 after aspirin pretreatment: approximately 10 % of baseline
[12]
  Rating of Flushing by Investigator: Mild: 2
  Rating of Flushing by Investigator: Moderate: 3
  Rating of Flushing by Investigator: None: 8
  Rating of Flushing by Investigator: Severe: 1
  Rating of Flushing by Investigator: Very severe: 0
[13]
  Local T° change: 0.61 ± 0.56 °C

## O=C(O)c1ccccc1Nc1cccc(C(F)(F)F)c1 [flufenamic acid]
[2]
  inhibition of synthesis of PGs such as E2 and F2, concentrations: high micromolar

## CC(C)Cc1ccc(C(C)C(=O)O)cc1 (stereo not shown) [ibuprofen]
[2]
  inhibition of synthesis of PGs such as E2 and F2, concentrations: high micromolar

## COc1ccc2c(c1)c(CC(=O)O)c(C)n2C(=O)c1ccc(Cl)cc1 [indomethacin]
[2]
  inhibition of synthesis of PGs such as E2 and F2, concentrations: high micromolar
[8]
  inhibition of nicotinic acid-induced flush (increase in ear temperature): inhibited
[14]
  inhibitory concentrations on PG production in other cell types: micromolar range
inflammation; [20]
  Minimum Anti-inflammatory Dosage: 25 mg
[11]; THP-1, read-out: IC50, PG production in THP-1 cells
  IC50: ~1 nM
[11]; THP-1 versus other cells
  sensitivity of THP-1 cells relative to other cells: approximately 1000 times

## COc1ccc2cc([C@H](C)C(=O)O)ccc2c1 [naproxen]
[2]
  inhibition of synthesis of PGs such as E2 and F2, concentrations: high micromolar
inflammation; [20]
  Minimum Anti-inflammatory Dosage: 250 mg

## O=C(O)c1cccnc1 [niacin, nicotinic acid]
[3]; 500 mg nicotinic acid 1 hour after single 40 mg aspirin, over 7 hours (FIG. 1)
  excretion of PGD-M in urine: significant amounts
[15]; after 6 days of continuous, twice daily administration
  level of prostaglandin F2 on repeated administration: decreases markedly
[15]; following administration of niacin
  concentration of prostaglandin F2 in blood coming from the skin: dramatic rise
[7]; single 500 mg dose without aspirin, all three subjects
  flushing, nicotinic acid without aspirin: severe flushing
[16]
  in vitro release of PGs from human circulating monocytes: stimulate in vitro release of PGs
[17]
  patients who cease taking nicotinic acid: 30-40 % of patients
[11]; FIG. 4
  in vitro release of PGs from THP-1: stimulate in vitro release of PGs
[18]
  release of 9a, 11b-PGF2: increased the release
  release of thromboxane (TxB2): did not release
[19]
  metabolites of PGD2 in urine: increased amounts
  metabolites of leukotriene in urine: increased amounts
  metabolites of thromboxane in urine: increased amounts

## CCCCC1C(=O)N(c2ccccc2)N(c2ccccc2)C1=O [phenylbutazone]
[2]
  inhibition of synthesis of PGs such as E2 and F2, concentrations: high micromolar

Source: patent US5981555A, “Compositions, kits and methods for administration of antilipemic drugs” (Lipoprotein Technologies, Inc., priority 1997, dated 1999)
